From patent publication US12059422B2 (MEI Pharma, Inc., priority 2011, dated 2024) come the findings set out here.

pIC50: −log10 of the molar value.

In test [1] the target is T1, PI3K alpha (Homo sapiens, UniProt P42336).
T1 construct: purchased Invitrogen Corp., Carlsbad, CA, USA
Nature of the test: Luciferase-based luminescence assay (KinaseGlo), PI3K alpha enzymatic activity. Type of test: biochemical. The note with it: inhibition of enzymatic activity, 25 μM ATP, read-out: IC50 p110α. As to the method: (§1) PI3K catalyzes the conversion of phosphatidylinositol-4,5-bisphosphate (PIP2) and ATP to phosphatidylinositol-3,4,5-trisphosphate (PIP3) and ADP. For all assays, the reaction buffer comprised 50 mM HEPES, pH 7.5, 3 mM MgCl2, 1 mM EGTA, 100 mM NaCl, 0.03% CHAPS and 2 mM DTT. Compounds for testing were dissolved and serially diluted in 100% DMSO (total of 10 concentrations), then diluted 1:25 in reaction buffer.
(§2) PI3K alpha and PI3K delta enzymatic activity was determined by measuring the amount of ATP consumed following the kinase reaction using a luciferase-based luminescence assay (KinaseGlo®, Promega Corp., Madison, WI, USA). PI3K enzyme solutions were prepared by diluting PI3K alpha (Invitrogen Corp., Carlsbad, CA, USA) or PI3K delta (Millipore, Billerica, MA, USA) in reaction buffer, to 4× the final assay concentration (final concentrations of enzymes were 1.65 nM and 6.86 nM for PI3K alpha and PI3K delta, respectively). A substrate solution was prepared by mixing PIP2 and ATP in reaction buffer at 2× the final assay concentration (final concentrations were 50 μM and 25 μM for PIP2 and ATP respectively). 2.5 μL each of the compound and kinase mixtures were added to individual wells of white low volume 384-well assay plates and mixed by shaking. The reactions were started by adding 5 μL of substrate mixture per well and shaking. The assay plates were covered and reactions were allowed to proceed for 1 hour (PI3K alpha) or 2 hours (PI3K delta), after which 10 μL of Kinase Glo® reagent was added. The plates were briefly centrifuged and incubated for 10 minutes, after which luminescence was measured using a FlexStation plate reader (Molecular Devices, Sunnyvale, CA, USA). IC50 values were determined by curve fitting using Graphpad Prism software (Graphpad Software, La Jolla, CA, USA).

For test [2], the target named is T2, PI3K beta (Homo sapiens, UniProt P42338).
T2 construct: purchased Millipore, Billerica, MA, USA
T2 sequence (P42338 whole entry, species assumed): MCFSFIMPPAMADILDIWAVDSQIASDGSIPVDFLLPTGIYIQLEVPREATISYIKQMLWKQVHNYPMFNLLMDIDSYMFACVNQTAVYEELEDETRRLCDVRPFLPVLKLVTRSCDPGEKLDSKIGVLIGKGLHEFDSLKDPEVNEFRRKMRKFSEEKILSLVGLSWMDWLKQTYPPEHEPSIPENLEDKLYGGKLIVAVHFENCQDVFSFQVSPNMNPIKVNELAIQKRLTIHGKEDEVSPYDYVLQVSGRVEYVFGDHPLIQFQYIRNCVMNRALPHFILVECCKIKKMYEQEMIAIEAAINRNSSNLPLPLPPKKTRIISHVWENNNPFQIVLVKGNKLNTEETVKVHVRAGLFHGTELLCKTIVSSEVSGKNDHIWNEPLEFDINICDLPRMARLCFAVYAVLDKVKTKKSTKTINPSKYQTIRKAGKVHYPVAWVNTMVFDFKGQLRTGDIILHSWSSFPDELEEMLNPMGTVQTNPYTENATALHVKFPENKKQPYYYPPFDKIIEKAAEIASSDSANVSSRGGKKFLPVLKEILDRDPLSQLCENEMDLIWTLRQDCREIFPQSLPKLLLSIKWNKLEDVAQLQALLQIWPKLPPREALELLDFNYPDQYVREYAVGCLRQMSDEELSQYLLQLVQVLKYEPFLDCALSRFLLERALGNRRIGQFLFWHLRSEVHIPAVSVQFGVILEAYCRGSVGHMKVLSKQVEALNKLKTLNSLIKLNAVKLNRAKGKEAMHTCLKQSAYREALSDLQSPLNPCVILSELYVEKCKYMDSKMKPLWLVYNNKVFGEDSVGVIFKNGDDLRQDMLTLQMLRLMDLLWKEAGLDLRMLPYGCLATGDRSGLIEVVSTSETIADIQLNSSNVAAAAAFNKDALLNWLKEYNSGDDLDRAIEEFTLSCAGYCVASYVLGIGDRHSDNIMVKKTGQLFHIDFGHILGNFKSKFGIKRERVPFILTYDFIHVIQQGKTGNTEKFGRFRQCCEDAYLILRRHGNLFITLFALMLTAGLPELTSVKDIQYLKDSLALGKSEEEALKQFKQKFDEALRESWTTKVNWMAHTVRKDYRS
T2 sequence (P27986 whole entry partner, species assumed): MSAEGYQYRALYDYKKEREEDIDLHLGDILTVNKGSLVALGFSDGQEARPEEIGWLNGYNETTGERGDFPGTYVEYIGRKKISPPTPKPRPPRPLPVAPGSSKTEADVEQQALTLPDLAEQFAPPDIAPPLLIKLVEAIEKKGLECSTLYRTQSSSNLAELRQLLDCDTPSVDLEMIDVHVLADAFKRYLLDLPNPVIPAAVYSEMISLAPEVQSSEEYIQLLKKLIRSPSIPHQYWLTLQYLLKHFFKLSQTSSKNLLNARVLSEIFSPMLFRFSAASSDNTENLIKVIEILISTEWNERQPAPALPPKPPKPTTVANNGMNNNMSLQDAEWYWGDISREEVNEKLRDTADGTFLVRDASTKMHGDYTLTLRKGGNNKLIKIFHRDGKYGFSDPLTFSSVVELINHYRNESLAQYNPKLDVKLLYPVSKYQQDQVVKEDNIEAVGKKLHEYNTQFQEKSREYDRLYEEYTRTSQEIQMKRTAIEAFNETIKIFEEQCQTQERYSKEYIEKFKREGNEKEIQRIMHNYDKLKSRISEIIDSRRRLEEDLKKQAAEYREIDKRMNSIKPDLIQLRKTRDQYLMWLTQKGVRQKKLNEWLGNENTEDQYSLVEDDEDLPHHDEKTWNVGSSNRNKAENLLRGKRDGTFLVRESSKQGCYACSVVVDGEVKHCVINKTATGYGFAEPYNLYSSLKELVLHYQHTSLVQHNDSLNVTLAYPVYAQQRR
Briefly: Luciferase-based luminescence assay (ADP Glo), PI3K beta enzymatic activity. Type of test: biochemical. Conditions: for pIC50: inhibition of enzymatic activity, ADP Glo, 25 μM ATP, read-out: IC50 p110β; for α/β ratio: ratio of enzymatic IC50 values, Table 1. The procedure:
as §1
(§3) PI3K beta and gamma enzymatic activity was determined by measuring the amount of ADP produced following the kinase reaction using a luciferase-based luminescence assay (ADP Glo®, Promega Corp., Madison, WI, USA). PI3K enzyme solutions were prepared by diluting PI3K beta (Millipore, Billerica, MA, USA) or PI3K gamma (Invitrogen Corp., Carlsbad, CA, USA) in reaction buffer, to 4× the final assay concentration (final concentrations of enzymes were 4.8 nM and 7.6 nM for PI3K beta and PI3K gamma respectively). A substrate solution was prepared by mixing PIP2 and ATP in reaction buffer at 2× the final assay concentration (final concentrations were 50 μM and 25 μM for PIP2 and ATP respectively). 2.5 μL each of the compound and kinase mixtures were added to individual wells of white low volume 384-well assay plates and mixed by shaking. The reactions were started by adding 5 μL of substrate mixture per well and shaking. The assay plates were covered and reactions were allowed to proceed for 1 hour. Then, 5 μL of reaction mix was transferred to another white low volume 384-well plate, and 5 μL of ADP-Glo™ reagent was added. The plates were briefly centrifuged and incubated for 40 minutes, after which 10 μL of kinase detection buffer was added. The plates then were centrifuged briefly, shaken slowly and equilibrated at room temperature for 30 minutes, after which luminescence was measured using a FlexStation plate reader (Molecular Devices, Sunnyvale, CA, USA). IC50 values were determined by curve fitting using Graphpad Prism software (Graphpad Software, La Jolla, CA, USA).

For test [3], the target named is T3, PI3K gamma (Homo sapiens, UniProt P48736).
T3 construct: purchased Invitrogen Corp., Carlsbad, CA, USA
T3 sequence (P48736 whole entry, species assumed): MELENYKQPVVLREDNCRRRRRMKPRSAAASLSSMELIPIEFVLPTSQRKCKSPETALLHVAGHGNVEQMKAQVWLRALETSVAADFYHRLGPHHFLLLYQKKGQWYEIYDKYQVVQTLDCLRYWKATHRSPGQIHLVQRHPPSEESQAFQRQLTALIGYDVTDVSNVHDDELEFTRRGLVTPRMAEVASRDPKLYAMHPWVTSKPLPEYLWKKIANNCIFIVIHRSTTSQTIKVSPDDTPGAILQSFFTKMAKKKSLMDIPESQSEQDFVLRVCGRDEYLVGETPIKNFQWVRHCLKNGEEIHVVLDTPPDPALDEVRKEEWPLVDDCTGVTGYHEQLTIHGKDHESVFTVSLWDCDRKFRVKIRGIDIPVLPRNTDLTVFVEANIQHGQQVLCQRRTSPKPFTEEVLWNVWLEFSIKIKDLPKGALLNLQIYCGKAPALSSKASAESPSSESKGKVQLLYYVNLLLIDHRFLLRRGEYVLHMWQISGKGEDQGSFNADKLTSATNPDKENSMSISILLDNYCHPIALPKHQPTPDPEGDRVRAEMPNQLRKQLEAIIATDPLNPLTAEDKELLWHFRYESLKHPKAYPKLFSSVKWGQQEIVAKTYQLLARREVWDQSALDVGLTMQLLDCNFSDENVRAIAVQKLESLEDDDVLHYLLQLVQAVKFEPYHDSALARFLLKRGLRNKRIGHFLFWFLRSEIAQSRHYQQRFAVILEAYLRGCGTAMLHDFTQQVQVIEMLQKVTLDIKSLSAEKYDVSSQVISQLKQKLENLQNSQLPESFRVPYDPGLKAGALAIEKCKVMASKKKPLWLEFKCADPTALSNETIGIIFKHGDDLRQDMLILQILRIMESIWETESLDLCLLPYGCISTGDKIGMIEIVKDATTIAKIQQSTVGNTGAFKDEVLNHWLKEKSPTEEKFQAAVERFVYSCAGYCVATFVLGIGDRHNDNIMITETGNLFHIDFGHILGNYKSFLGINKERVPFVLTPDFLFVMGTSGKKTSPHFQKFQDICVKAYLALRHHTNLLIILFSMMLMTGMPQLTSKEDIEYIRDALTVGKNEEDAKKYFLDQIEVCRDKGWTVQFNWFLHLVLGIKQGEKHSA
Nature of the test: Luciferase-based luminescence assay (ADP Glo), PI3K gamma enzymatic activity. The note with it: inhibition of enzymatic activity, 25 μM ATP, read-out: IC50 p110γ. Type of test: biochemical. The procedure: as §1, §3

The target in test [4] is T4, PI3K delta (Homo sapiens, UniProt O00329).
T4 construct: purchased Millipore, Billerica, MA, USA
Nature of the test: Luciferase-based luminescence assay (KinaseGlo), PI3K delta enzymatic activity. The note with it: for pIC50: inhibition of enzymatic activity, KinaseGlo, 25 μM ATP, read-out: IC50 p110δ; for α/δ ratio: ratio of enzymatic IC50 against PI3Kα over IC50 against PI3Kδ; for β/δ ratio / γ/δ ratio: ratio of enzymatic IC50 values, Table 1. Type of test: biochemical. The procedure:
as §1, §2

Test [5] has as its target mTOR (Homo sapiens, UniProt P42345). Briefly: mTOR inhibition (Table 1). Type of test: biochemical. The note with it: Table 1, no method described.
Test [6] deals with T5, PI3Kδ (Homo sapiens, UniProt O00329).
T5 construct: endogenous in cells; host or cells: Raji (ATCC #CCL-86)
T5 sequence (O00329 whole entry): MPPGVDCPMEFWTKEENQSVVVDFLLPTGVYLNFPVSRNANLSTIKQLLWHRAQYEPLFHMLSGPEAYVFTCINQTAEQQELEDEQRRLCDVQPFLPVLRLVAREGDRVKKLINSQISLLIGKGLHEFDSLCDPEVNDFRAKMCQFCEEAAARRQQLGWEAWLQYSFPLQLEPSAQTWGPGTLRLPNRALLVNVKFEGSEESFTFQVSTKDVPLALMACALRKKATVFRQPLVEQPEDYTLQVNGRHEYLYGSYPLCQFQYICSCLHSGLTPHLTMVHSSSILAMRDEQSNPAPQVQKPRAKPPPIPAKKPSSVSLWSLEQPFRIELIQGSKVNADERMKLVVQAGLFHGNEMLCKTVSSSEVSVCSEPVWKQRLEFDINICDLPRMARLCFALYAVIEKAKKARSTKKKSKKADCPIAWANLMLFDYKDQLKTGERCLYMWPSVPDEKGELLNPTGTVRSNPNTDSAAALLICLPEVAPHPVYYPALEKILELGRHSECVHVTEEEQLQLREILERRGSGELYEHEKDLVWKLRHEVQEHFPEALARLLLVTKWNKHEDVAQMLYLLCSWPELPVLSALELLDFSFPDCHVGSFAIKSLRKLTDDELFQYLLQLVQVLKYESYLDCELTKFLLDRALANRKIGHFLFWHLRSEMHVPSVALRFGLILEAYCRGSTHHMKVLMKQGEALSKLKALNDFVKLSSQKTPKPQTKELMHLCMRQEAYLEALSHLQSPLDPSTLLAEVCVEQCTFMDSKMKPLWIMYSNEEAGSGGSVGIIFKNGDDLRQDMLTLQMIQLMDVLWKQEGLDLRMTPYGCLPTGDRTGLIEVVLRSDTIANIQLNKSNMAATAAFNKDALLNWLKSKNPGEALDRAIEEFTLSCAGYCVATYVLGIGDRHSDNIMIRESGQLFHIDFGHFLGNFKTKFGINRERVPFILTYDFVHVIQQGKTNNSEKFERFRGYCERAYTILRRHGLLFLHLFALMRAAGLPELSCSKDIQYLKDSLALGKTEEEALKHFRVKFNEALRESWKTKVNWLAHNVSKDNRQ
T5 sequence (P27986 whole entry partner): as the sequence (P27986 whole entry partner, species assumed) above
Nature of the test: ELISA assay for PI3Kδ: sandwich ELISA, phosphorylation of AKT (Thr308) in Raji cells. Type of test: cell-based. Conditions: cellular, pAKT (Thr308), Raji cells, anti-Human IgM stimulation; read-out: IC50 p110δ. As to the method:
Cellular PI3Kδ activity was determined by measuring the phosphorylation of AKT (Thr308) using a sandwich enzyme-linked immunosorbant assay (ELISA). Raji (Burkitt's Lymphoma) cells were obtained from ATCC (ATCC #CCL-86). Phosphate buffer saline (PBS) contained 2.7 M NaCl, 54 mM KCl, 86 mM […] (dibasic, anhydrous), and 28 mM […] (monobasic, anhydrous) at pH 7.2. Wash buffer contained PBS supplemented with 0.05% Tween-20. Blocking buffer contained wash buffer supplemented with 1% BSA. A 10× stimulation mixture contained 5 μg/mL anti-Human IgM antibody (Sigma #12386) diluted in serum-free RPMI medium (CellGro #CV-10-040-CV). Compounds for testing were dissolved and serially diluted in 100% DMSO (total of 10 concentrations), and then diluted in serum-free RPMI to 5×final assay concentration.
Raji cells were subcultured in RPMI medium supplemented with 10% fetal bovine serum, 100 IU/mL penicillin, 100 μg/mL streptomycin, and 1×MEM non-essential amino acids. Sandwich ELISA plates were prepared by coating 96-well assay plates (Pierce #15042) with 100 μL/well capture antibody (Cell Signaling Technology #7142 or 7144) diluted in PBS. Plates were incubated overnight at 4° C., then washed with wash buffer, after which 200 μL/well blocking buffer was added to the plates and incubated at room temperature for at least 2 hrs. Raji cells were resuspended in serum-free RPMI medium and seeded into V-bottom, 2-mL 96-well blocks (Corning #3961) at 10^6 cells/well, then incubated for 2 hrs in a 37° C., 5% CO2 incubator. Compound treatment was performed by adding the 5× compound mixture to the cells and incubating for 2 hrs at 37° C., 5% CO2, after which the 10× stimulation mixture was added to the plates and incubated for 30 min at 37° C., 5% CO2. Cells were pelleted by centrifuging plates at 1500 RPM for 5 min at room temperature. Media was carefully removed and cells were lysed by adding 100 μL/well cell lysis buffer (Cell Signaling Technology #9803) supplemented with protease and phosphatase inhibitors (Thermo Fisher #78443). Plates were incubated on ice for 30 min, then the lysates (80 μL for pAKT^T308, 10 μL for total AKT) were transferred to prepared assay plates and incubated at 4° C. overnight. After washing plates with wash buffer, 100 μL/well detection antibody (Cell Signaling Technology #7142 or 7144) diluted in blocking buffer was added to the plates and incubated for 1 hr at 37° C. Plates were washed and 100 μL/well of HRP-conjugated secondary antibody (Cell Signaling Technology #7142 or 7144) diluted in blocking buffer was added to plates and incubated for 1 hr at room temperature. Plates were washed with wash buffer and 100 μL/well of luminescent substrate was added to plates. After 1 min on a plate shaker at medium speed, luminescence was read on a Wallac Victor2 plate reader. IC50 values were determined by curve fitting using a Collaborative Drug Discovery database (www.collaborativedrug.com).

T1 sequence (P42336 whole entry, species assumed): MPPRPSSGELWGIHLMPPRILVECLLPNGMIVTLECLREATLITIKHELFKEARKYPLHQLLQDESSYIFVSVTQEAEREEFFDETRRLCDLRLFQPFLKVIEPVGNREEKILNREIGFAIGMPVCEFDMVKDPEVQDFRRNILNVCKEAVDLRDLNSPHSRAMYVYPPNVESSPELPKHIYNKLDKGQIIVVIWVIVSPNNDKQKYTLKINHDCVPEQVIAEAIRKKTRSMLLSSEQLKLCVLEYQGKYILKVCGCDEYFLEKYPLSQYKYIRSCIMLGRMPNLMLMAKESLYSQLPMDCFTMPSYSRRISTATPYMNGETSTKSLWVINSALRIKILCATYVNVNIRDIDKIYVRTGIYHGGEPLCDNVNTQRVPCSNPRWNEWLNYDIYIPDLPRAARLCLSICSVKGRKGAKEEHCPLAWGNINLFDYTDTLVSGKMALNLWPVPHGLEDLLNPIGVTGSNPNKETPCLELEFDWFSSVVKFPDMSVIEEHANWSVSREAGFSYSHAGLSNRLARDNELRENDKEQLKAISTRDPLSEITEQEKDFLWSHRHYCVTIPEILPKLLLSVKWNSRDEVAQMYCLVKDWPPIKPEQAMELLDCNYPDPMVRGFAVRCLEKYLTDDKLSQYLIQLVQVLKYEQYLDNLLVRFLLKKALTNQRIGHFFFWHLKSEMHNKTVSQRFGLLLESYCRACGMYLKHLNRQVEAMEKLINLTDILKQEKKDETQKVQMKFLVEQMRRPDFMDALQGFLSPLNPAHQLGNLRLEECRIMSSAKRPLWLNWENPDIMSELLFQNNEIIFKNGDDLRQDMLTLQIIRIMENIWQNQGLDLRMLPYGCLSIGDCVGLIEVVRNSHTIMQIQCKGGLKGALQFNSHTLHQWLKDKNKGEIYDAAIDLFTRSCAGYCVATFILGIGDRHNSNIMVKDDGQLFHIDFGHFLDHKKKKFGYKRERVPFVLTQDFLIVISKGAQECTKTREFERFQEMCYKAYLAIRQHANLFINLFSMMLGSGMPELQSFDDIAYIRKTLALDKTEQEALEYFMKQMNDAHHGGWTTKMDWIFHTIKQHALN
T1 sequence (P27986 whole entry partner, species assumed): as the sequence (P27986 whole entry partner, species assumed) above

In the case of `COc1ccc(CC(C)(C)Nc2nc(N3CCOCC3)nc(-n3c(C(F)F)nc4ccccc43)n2)cc1` [Compound A25, 4-(2-(difluoromethyl)-1H-benzo[d]imidazol-1-yl)-N-(1-(4-methoxyphenyl)-2-methylpropan-2-yl)-6-morpholino-1,3,5-triazin-2-amine], the pIC50 in test [1] was less than 6.30; in test [2] it was less than 6.30; in test [3], less than 6.30; in test [4], 6.30 to 6.70; in test [5], less than 6.30; in test [6], no less than 7.00. In test [2], the α/β ratio entry is “D’”. Further, the α/δ ratio entry in test [4] is listed as “D’”. The β/δ ratio entry in test [4] was “A’”. In test [4], the γ/δ ratio entry is given as “D’”.
As for `CC(C)(Cc1ccc(Cl)cc1)Nc1nc(N2CCOCC2)nc(-n2c(C(F)F)nc3ccccc32)n1` [Compound A23, N-(1-(4-chlorophenyl)-2-methylpropan-2-yl)-4-(2-(difluoromethyl)-1H-benzo[d]imidazol-1-yl)-6-morpholino-1,3,5-triazin-2-amine], the pIC50 was less than 6.30 in test [1]; 6.30 to 6.70 in test [2]; 6.30 to 6.70 in test [3]; no less than 7.00 in test [4]; less than 6.30 in test [5]; no less than 7.00 in test [6]. Also, the α/β ratio result in test [2] is recorded as “D’”. Further, the α/δ ratio result in test [4] is “B’”. Further, the β/δ ratio result in test [4] is recorded as “D’”. Besides, the γ/δ ratio entry in test [4] is “C’”.
As to `CC(C)(Cc1ccc(Br)cc1)Nc1nc(N2CCOCC2)nc(-n2c(C(F)F)nc3ccccc32)n1` [Compound A24, N-(1-(4-bromophenyl)-2-methylpropan-2-yl)-4-(2-(difluoromethyl)-1H-benzo[d]imidazol-1-yl)-6-morpholino-1,3,5-triazin-2-amine], the pIC50 in test [1] is less than 6.30; in test [2] it was less than 6.30; in test [3], 6.30 to 6.70; in test [4] it was 6.70 to 7.00; in test [5], less than 6.30; in test [6] it was no less than 7.00. In test [2], the α/β ratio result was “D’”. Also, in test [4], the α/δ ratio entry is “D’”. For the same compound, the β/δ ratio entry in test [4] is on record as “C’”. Moreover, the γ/δ ratio result in test [4] is “D’”.
`C[C@H](Nc1nc(N2CCOCC2)nc(-n2c(C(F)F)nc3ccccc32)n1)c1ccccc1` [Compound A2, (S)-4-(2-(difluoromethyl)-1H-benzo[d]imidazol-1-yl)-6-morpholino-N-(1-phenylethyl)-1,3,5-triazin-2-amine]: the negative logarithm of the IC50 (pIC50) was less than 6.30 in test [1]; less than 6.30 in test [2]; less than 6.30 in test [3]; 6.30 to 6.70 in test [4]; less than 6.30 in test [5]. The α/β ratio result in test [2] is “D’”. Besides, the α/δ ratio result in test [4] is “D’”. Besides, the β/δ ratio entry in test [4] was “A’”. In addition, the γ/δ ratio entry in test [4] is reported as “D’”.
Turning to `CC(C)(Cc1ccccc1-c1ccccc1)Nc1nc(N2CCOCC2)nc(-n2c(C(F)F)nc3ccccc32)n1` [Compound A47, 4-(2-(difluoromethyl)-1H-benzo[d]imidazol-1-yl)-N-(1-(biphenyl-2-yl)-2-methylpropan-2-yl)-6-morpholino-1,3,5-triazin-2-amine], the pIC50 in test [1] was 6.30 to 6.70. In test [2], the pIC50 is 6.70 to 7.00 and the α/β ratio entry is reported as “D’”. In addition, in test [3], the pIC50 is less than 6.30. For the same compound, in test [4], the negative-log IC50 (pIC50) is no less than 7.00, the α/δ ratio result is “A’”, the β/δ ratio entry is reported as “B’” and the γ/δ ratio entry is recorded as “A’”. The same compound had a pIC50 in test [5] of less than 6.30.
As to `CC(C)(Cc1cccc(Cl)c1)Nc1nc(N2CCOCC2)nc(-n2c(C(F)F)nc3ccccc32)n1` [Compound A20, N-(1-(3-chlorophenyl)-2-methylpropan-2-yl)-4-(2-(difluoromethyl)-1H-benzo[d]imidazol-1-yl)-6-morpholino-1,3,5-triazin-2-amine], the pIC50 in test [1] was less than 6.30. In test [2], the pIC50 is 6.70 to 7.00 and the α/β ratio entry is on record as “A’”. The pIC50 in test [3] was less than 6.30. For the same compound, in test [4], the pIC50 is 6.70 to 7.00, the α/δ ratio result is reported as “A’”, the β/δ ratio result is on record as “D’” and the γ/δ ratio entry was “C’”. This compound gave a pIC50 in test [5] of less than 6.30.
